Reference: patent US10231939B2, “Hydroxytyrosol and oleuropein compositions for induction of DNA damage, cell death and LSD1 inhibition” (priority 2012, dated 2019)

Experiments:
Experiment in all cases: Cell proliferation (Cell Titer-Blue Assay)
Type in all cases: cell-based, human
[1] = tested on: PBMC; conditions: for EC50: Homo sapiens, 24 hr; for cell proliferation of PBMC: 120 hours incubation
Method: Human peripheral blood mononuclear cells (PBMCs) were fractionated using the Ficoll Plaque fractionation method from whole blood obtained from the Australian Red Cross Blood Bank (ARCB) under ethic approval (#304/12). Cells were harvested fresh on the day of the experiments and maintained in complete-RPMI-1640 medium supplemented with 10% FBS, 2 mM L-glutamine and 20 μg/mL gentamicin at 37° C., 5% (v/v) CO2. Cell proliferation was determined using the Cell Titer-Blue Assay kit (Promega, Madison, Wis., USA). Cells were seeded at 10,000 cells per well in black flat bottom 96-well plates (Nalge Nunc, Penfield, N.Y., USA) and treated with serial doses of hydroxytyrosol (0-3200 μM) and oleuropein (0-12800 μM) for 24, 48 and 120 hours at 37° C., 5% (v/v) CO2. Following incubation with the test samples, Cell-Titer Blue reagent (20 μl per 100 μL) was added to each well and mixed gently for 5 sec prior to 4 hr incubation at 37° C. in a humidified atmosphere of 5% CO2. Fluorescence intensity (λex=550 nm and λem=615 nm) was determined using a Perkin Elmer Victor3 multilabel microplate counter (PerkinElmer, Waltham, Mass., USA). Data were expressed as % relative cell viability compared to untreated cells after correction of subtracting the media control fluorescence reading.

[2] = tested on: HL-60 cells; conditions: for EC50: Homo sapiens
Method: Human acute myeloid leukemic HL-60 cells (ATCC No. CCL-240) obtained from the ATCC were maintained in Dulbecco's modified Eagle's medium (DMEM, Gibco®, Invitrogen, Carlsbad, USA) supplemented with 20% fetal bovine serum (FBS, In Vitro Technologies, Victoria, Australia), antibody/antimycotic containing 100 U/mL Penicillin, 100 μg/mL Streptomycin, 0.25 μg/mL Amphotericin B (Invitrogen, Carlsbad, Calif., USA) and 1× GlutaMAX (Gibco, Invitrogen). Cells were cultured in suspension in a humidified atmosphere of 5% (v/v) CO2 at 37° C. and were maintained in exponential growth phase. For maintenance, cells were passaged twice per week and seeded at ratios 1:10. Cell proliferation was determined using the Cell Titer-Blue Assay kit (Promega, Madison, Wis., USA). Cells were seeded at 10,000 cells per well in black flat bottom 96-well plates (Nalge Nunc, Penfield, N.Y., USA) and treated with serial doses of hydroxytyrosol (0-3200 μM) and oleuropein (0-12800 μM) for 24, 48 and 120 hours at 37° C., 5% (v/v) CO2. Following incubation with the test samples, Cell-Titer Blue reagent (20 μl per 100 μL) was added to each well and mixed gently for 5 sec prior to 4 hr incubation at 37° C. in a humidified atmosphere of 5% CO2. Fluorescence intensity (λex=550 nm and λem=615 nm) was determined using a Perkin Elmer Victor3 multilabel microplate counter (PerkinElmer, Waltham, Mass., USA). Data were expressed as % relative cell viability compared to untreated cells after correction of subtracting the media control fluorescence reading.

[3] = tested on: HT-29 cells; conditions: for EC50: Homo sapiens
Method: (§1) Human epidermal squamous carcinoma A431 cells (ATCC No. CRL-1555), human breast adenocarcinoma MCF7 cells (ATCC No. HTB-22) and brain glioblastoma T98G cells (ATCC No. CRL-1690) obtained from the ATCC were grown as monolayers in a Modified Eagle's Medium (a-MEM) supplemented with 2 mmol/L HEPES (pH 7.4; GIBCO-Invitrogen), 10% (v/v) FBS, 2 mmol/L L-glutamine (GIBCO-Invitrogen), and 80 units gentamicin (GIBCO-Invitrogen). Human epithelial lung adenocarcinoma A549 cells (ATCC No. CCL-185), human liver hepatocellular carcinoma and human colorectal carcinoma HT-29 cells (ATCC No. HTB-38) were obtained from the American Type Culture Collection and grown as monolayers in DMEM (Gibco, Invitrogen) supplemented with 10% (v/v) FBS (In Vitro Technologies), antibody/antimycotic containing 100 U/mL Penicillin, 100 μg/mL Streptomycin, 0.25 μg/mL Amphotericin B (Invitrogen, Carlsbad). All adherent cells were maintained in the exponential growth phase in T75 cm^2 vented culture flasks and passaged by 0.05% (v/v) trypsin-EDTA (GIBCO, Invitrogen) before seeding; at 37° C., 5% (v/v) CO2. Cell proliferation was determined using the Cell Titer-Blue Assay kit (Promega, Madison, Wis., USA). Cells were seeded at 10,000 cells per well in black flat bottom 96-well plates (Nalge Nunc, Penfield, N.Y., USA) and treated with serial doses of hydroxytyrosol (0-3200 μM) and oleuropein (0-12800 μM) for 24, 48 and 120 hours at 37° C., 5% (v/v) CO2. Following incubation with the test samples, Cell-Titer Blue reagent (20 μl per 100 μL) was added to each well and mixed gently for 5 sec prior to 4 hr incubation at 37° C. in a humidified atmosphere of 5% CO2. Fluorescence intensity (λex=550 nm and λem=615 nm) was determined using a Perkin Elmer Victor3 multilabel microplate counter (PerkinElmer, Waltham, Mass., USA). Data were expressed as % relative cell viability compared to untreated cells after correction of subtracting the media control fluorescence reading.

[4] = tested on: T98G cells; conditions: for EC50: Homo sapiens
Method: as §1

[5] = tested on: A549 cells; conditions: for EC50: Homo sapiens
Method: as §1

[6] = tested on: A431 cells; conditions: for EC50: Homo sapiens, A-431
Method: as §1

[7] = tested on: MCF7 cells; conditions: for EC50: Homo sapiens
Method: as §1

**Q.** With `C/C=C1/[C@H](O[C@@H]2O[C@H](CO)[C@@H](O)[C@H](O)[C@H]2O)OC=C(C(=O)OC)[C@H]1CC(=O)OCCc1ccc(O)c(O)c1` [OL, oleuropein] as the compound, how does the EC50 [1] read?
**A.** 2710 µM

**Q.** And the “EC10 (concentration required to reduce the cell viability of the population to 10%)” value ([2]; HL-60, 120 hr)?
**A.** 230 µM

**Q.** What about the EC50 ([2]; HL-60, 24 hr) of the same compound?
**A.** 717 µM

**Q.** And the EC50 ([2]; HL-60, 48 hr)?
**A.** 900 µM

**Q.** What about the EC50 ([2]; HL-60, 120 hr) of the same compound?
**A.** 100 µM

**Q.** And the “EC10 (concentration required to reduce the cell viability of the population to 10%)” value ([3]; HT-29, 120 hr)?
**A.** 2950 µM

**Q.** And the EC50 ([3]; HT-29, 24 hr)?
**A.** 1580 µM

**Q.** And the EC50 ([3]; HT-29, 48 hr)?
**A.** 2500 µM

**Q.** What about the EC50 ([3]; HT-29, 120 hr) of the same compound?
**A.** 1850 µM

**Q.** What about the “EC10 (concentration required to reduce the cell viability of the population to 10%)” value ([4]; 120 hr) of the same compound?
**A.** 6220 µM

**Q.** What about the EC50 ([4]; 24 hr) of the same compound?
**A.** 2770 µM

**Q.** And the EC50 ([4]; 48 hr)?
**A.** 6100 µM

**Q.** And the EC50 ([4]; 120 hr)?
**A.** 5500 µM

**Q.** And the “EC10 (concentration required to reduce the cell viability of the population to 10%)” value ([5]; A549, 120 hr)?
**A.** 1540 µM

**Q.** What about the EC50 ([5]; A549, 24 hr) of the same compound?
**A.** 1080 µM

**Q.** What about the EC50 ([5]; A549, 48 hr) of the same compound?
**A.** 1100 µM

**Q.** And the EC50 ([5]; A549, 120 hr)?
**A.** 1220 µM

**Q.** And the “EC10 (concentration required to reduce the cell viability of the population to 10%)” value ([6]; A431, 120 hr)?
**A.** 4450 µM

**Q.** What about the EC50 ([6]; A431, 24 hr) of the same compound?
**A.** 1750 µM

**Q.** What about the EC50 ([6]; A431, 48 hr) of the same compound?
**A.** 4400 µM

**Q.** And the EC50 ([6]; A431, 120 hr)?
**A.** 2900 µM

**Q.** And the EC50 ([7]; MCF7, 24 hr)?
**A.** 4750 µM

**Q.** What about the EC50 ([7]; MCF7, 48 hr) of the same compound?
**A.** 3000 µM

**Q.** What about the EC50 ([7]; MCF7, 120 hr) of the same compound?
**A.** 4100 µM

**Q.** What about the “EC10 (concentration required to reduce the cell viability of the population to 10%)” value ([7]; MCF7, 120 hr) of the same compound?
**A.** 4700 µM

**Q.** For `OCCc1ccc(O)c(O)c1` [HT, 4-(2-hydroxyethyl)-1,2-benzenediol], which “cell proliferation of PBMC” value [1] is on record?
**A.** increases the proliferation

**Q.** What about the “cell proliferation of PBMC” value ([1]; listed as hydroxytyrosol) of the same compound?
**A.** attenuated

**Q.** And the EC50 [1]?
**A.** 855 µM

**Q.** What about the “EC10 (concentration required to reduce the cell viability of the population to 10%)” value ([2]; HL-60, 120 hr) of the same compound?
**A.** 29 µM

**Q.** And the EC50 ([2]; HL-60, 24 hr)?
**A.** 632 µM

**Q.** What about the EC50 ([2]; HL-60, 48 hr) of the same compound?
**A.** 100 µM

**Q.** And the EC50 ([2]; HL-60, 120 hr)?
**A.** 13 µM

**Q.** And the “EC10 (concentration required to reduce the cell viability of the population to 10%)” value ([3]; HT-29, 120 hr)?
**A.** 380 µM

**Q.** And the EC50 ([3]; HT-29, 24 hr)?
**A.** 800 µM

**Q.** What about the EC50 ([3]; HT-29, 48 hr) of the same compound?
**A.** 230 µM

**Q.** What about the EC50 ([3]; HT-29, 120 hr) of the same compound?
**A.** 310 µM

**Q.** And the “EC10 (concentration required to reduce the cell viability of the population to 10%)” value ([4]; 120 hr)?
**A.** 1120 µM

**Q.** What about the EC50 ([4]; 24 hr) of the same compound?
**A.** 1340 µM

**Q.** What about the EC50 ([4]; 48 hr) of the same compound?
**A.** 1750 µM

**Q.** And the EC50 ([4]; 120 hr)?
**A.** 700 µM

**Q.** What about the “EC10 (concentration required to reduce the cell viability of the population to 10%)” value ([5]; A549, 120 hr) of the same compound?
**A.** 320 µM

**Q.** And the EC50 ([5]; A549, 24 hr)?
**A.** 417 µM

**Q.** What about the EC50 ([5]; A549, 48 hr) of the same compound?
**A.** 220 µM

**Q.** What about the EC50 ([5]; A549, 120 hr) of the same compound?
**A.** 160 µM

**Q.** What about the “EC10 (concentration required to reduce the cell viability of the population to 10%)” value ([6]; A431, 120 hr) of the same compound?
**A.** 1000 µM

**Q.** And the EC50 ([6]; A431, 24 hr)?
**A.** 870 µM

**Q.** What about the EC50 ([6]; A431, 48 hr) of the same compound?
**A.** 920 µM

**Q.** And the EC50 ([6]; A431, 120 hr)?
**A.** 480 µM

**Q.** What about the EC50 ([7]; MCF7, 24 hr) of the same compound?
**A.** 580 µM

**Q.** What about the EC50 ([7]; MCF7, 48 hr) of the same compound?
**A.** 900 µM

**Q.** What about the EC50 ([7]; MCF7, 120 hr) of the same compound?
**A.** 520 µM

**Q.** What about the “EC10 (concentration required to reduce the cell viability of the population to 10%)” value ([7]; MCF7, 120 hr) of the same compound?
**A.** 750 µM
